According to patent publication US5366726A (priority 1992, dated 1994):
Where “and” joins values, the source holds several entries; their conditions need not be identical. Equal values may be shown once. Read-outs that look alike come from different tables or passages of the source.

Key:
[1] = system: Pneumocystis carinii; assay type: in vivo, human
[2] = Example 8: adverse effects in the clinical trial; assay type: in vivo, human
Description: Participants were enrolled in one of 13 treatment centers located in the San Francisco Bay area.
Each treatment was supervised by a respiratory therapist who noted any immediate adverse effects and administered a bronchodilator if needed for severe coughing or bronchospasm.
Participants were questioned at baseline and at each visit about concomitant medications, intercurrent illnesses, and symptoms. Information from participants, their physicians, hospital records, microbiology departments, and county health departments were used to determine status.

[3] = system: Pneumocystis carinii; test: Example 6: prevention of PCP, different dosages and regimens; assay type: in vivo, human; conditions: of 372, at least one treatment
Description: A total of 438 participants were selected on the basis of seropositivity for HIV, and were stratified on the basis of (i) prior PCP (n=250), (ii) Kaposi's sarcoma (n=59) or (iii) ARC (n=129).

[4] = inhaled, animals; cited from earlier work
[5] = parenteral pentamidine, TMP-SMX; cited from earlier work
[6] = system: Pneumocystis carinii; assay type: in vivo, human; remark: listed apart in the source
Description: The initial diagnosis of P. carinii pneumonia was based on finding the organism in induced sputum or bronchoalveolar lavage specimens.
Treatment was as described in Example 3.
(§1) Chest radiographs and arterial blood gas tensions were obtained as clinically indicated.

[7] = Respirgard or UltraVent, any dose or duration
[8] = parameters: species or system human; conditions: in vivo
Description: as §1
Liver function SGOT or SGPT
Rash with fever or mucositis
Cough cough or bronchospasm un-

[9] = human, in vivo
[10] = system: Pneumocystis carinii; test: Example 7: prevention of PCP, 300 mg twice per month vs 600 mg once per month; assay type: in vivo, human
Description: (§2) Five patients who developed PCP within 28 days were not evaluated. One hundred (66%) of the patients were concurrently receiving AZT, and 42 (28%) had experienced one prior episode of PCP.

[11] = Example 1: toxicity of inhaled vs intravenous pentamidine in patients; conditions: for major toxicity: neutropenia
[12] = system: Pneumocystis carinii; conditions: standard therapy, intravenous pentamidine or TMP-SMX
Description: Adult patients having or suspected of having AIDS, and who were hospitalized for a fiberoptic bronchoscopy to evaluate diffuse infiltrates on chest radiographs, were studied. The patients were divided into two groups.

[13] = system: Pneumocystis carinii; conditions: cited from earlier work; for Vital Capacity: percent predicted
[14] = parameters: species or system human; conditions: in vivo; remark: listed apart in the source
Description: (§3) Within 30 days of initiation of prophylaxis, ten patients were omitted due to treatment (9) or relapse (1). Of the 93 patients, 48 had had at least one previous episode of PCP. Two-thirds of the patients were taking AZT at the onset and throughout the duration of the post-exposure prophylaxis. The median and maximum duration of treatment at the time of analysis was 3.1 and 5.2 months.

[15] = system: Pneumocystis carinii; test: Example 5: prevention of P. carinii pneumonia, 300 mg once per month; assay type: in vivo, human; conditions: single prior episode; vs 10 based on 132 historical controls, p<0.01
Description: as §3

[16] = Example 2: pentamidine in BAL supernatant, BAL sediment and serum (HPLC); assay type: in vivo, human
Description: The patients were divided into two groups.

[17] = parameters: species or system human; conditions: in vivo; remark: listed apart in the source
Description: as §2

[18] = cited from earlier work
[19] = Example 2: aerosol particle size, Mercer cascade impactor; assay type: physicochemical
Description: A compressed oxygen (5-7 L/min at 345 kPa, 50 psi) powered nebulizer produces the aerosol and one-way valves provide for entrainment of room air in patients whose minute ventilation is high, act as a baffle to decrease particle size, and direct expired air to a filter which removes the remaining particles of drug thereby preventing environmental contamination.
Particles were sized with a 7 stage Mercer cascade impactor (Intox Products, Albuquerque, N. Mex.). The gas supply was 6 L/min, the sample stream was not dried, and the impactor flow rates were 0.5 L/min. […] Results from the average of three determinations at each location were expressed as mass median aerodynamic diameter±geometric standard deviation (MMAD±GSD). Raabe, J Aerosol Sci (1971) 2:289-303.

[20] = Example 1: pentamidine concentrations in plasma and bronchoalveolar lavage fluid (HPLC); assay type: in vivo, human; conditions: for Plasma conc. on Day 1: peak during or end of inhalation, single patients
Description: For six inhalation patients (1, 4, 6, 7, 15, and 16) and five i.v. patients (2, 3, 5, 8, and 22), plasma samples were obtained at the completion of therapy and at 0.17, 0.5, 1, 1.5, 2, 2.5, 3, 4, 5, 6, 8, 10, 12, and 18 hours following initiation of therapy. For patients 9-14 and 17-21, trough and peak plasma samples were collected for the first three days, then weekly during therapy. Trough and peak samples were obtained on days 2, 3, 4, 5, 7, 11, and 13 for patient 2, days 2, 3, 4, 5, 7, and 12 for patient 3, days 2, 3, 4, 5, 13 and 18 for patient 5, and days 2, 3, 4, 5, and 11 for patient 8.

Structure (SMILES): N=C(N)c1ccc(OCCCCCOc2ccc(C(=N)N)cc2)cc1 [pentamidine, p,p'-(pentamethylenedioxy)dibenzamidine]
- dyspnea, respiratory rate and fever ([1]; all 13 patients treated successfully): marked reduction
- patients who died of progressive respiratory failure ([1]; concomitant tuberculosis, changed to TMP-SMX day 7): One
- clinical improvement during second week, patients ([1]; in vivo): 3 patients
- clinical improvement in first week, patients ([1]; in vivo): Ten
- Successful Treatment w/ Change ([1]; n = 15): 14(93) n (%)
- Successful Treatment w/o Change ([1]; n = 15): 13(86) n (%)
- worsened infiltrates at one week with subsequent improvement, patients ([1]; of 13): Five
- worsened or no improvement for first two weeks, then improvement, patients ([1]; of 13): 4 patients
- radiographic improvement beginning by second week, patients ([1]; of 13 patients treated successfully): 4
- average hospital stay ([1]; patients treated successfully): 8 days
- Pneumothorax, Known etiology ([2]; 30 mg): 5
- Pneumothorax, Spontaneous ([2]; 30 mg): 2
- Significant Cough ([2]; 30 mg): 31%
- Treatments stopped due to cough ([2]; 30 mg): 0%
- Used Bronchodilators ([2]; 30 mg): 7.5%
- Withdrew, Adverse Effects ([2]; 30 mg): 2
- Pneumothorax, Known etiology ([2]; 150 mg): 5
- Pneumothorax, Spontaneous ([2]; 150 mg): 3
- Significant Cough ([2]; 150 mg): 40%
- Treatments stopped due to cough ([2]; 150 mg): 0.2%
- Used Bronchodilators ([2]; 150 mg): 14%
- Withdrew, Adverse Effects ([2]; 150 mg): 11
- Pneumothorax, Known etiology ([2]; 300 mg): 3
- Pneumothorax, Spontaneous ([2]; 300 mg): 3
- Significant Cough ([2]; 300 mg): 38%
- Treatments stopped due to cough ([2]; 300 mg): 0.7%
- Used Bronchodilators ([2]; 300 mg): 20%
- Withdrew, Adverse Effects ([2]; 300 mg): 10
- significant coughing during a treatment ([2]; all participants): 36%
- wheezing during a treatment ([2]; all participants): 11%
- participants who used bronchodilators during treatment ([2]; human, in vivo): Fourteen
- rash, participants ([2]; human, in vivo): One
- spontaneous pneumothorax ([2]; human, in vivo): Eight
- stopped due to interstitial pneumonitis, participants ([2]; human, in vivo): One
- treatments ended by cough ([2]; human, in vivo): 0.3%
- treatments interrupted by cough ([2]; human, in vivo): 0.5%
- withdrew after pneumothoraces, participants ([2]; human, in vivo): four
- participants who experienced relapse [3]: 17
- microscopic airway changes [4]: no microscopic airway changes
- rate of severe reactions [5]: 50%
- hypoxia, fever, dyspnea ([6]; 10 patients): none of the patients were hypoxic or febrile, all had improvement in dyspnea
- completion of therapy ([6]; 10 patients, 4 to 17 days): All patients successfully completed therapy
- chest radiographs ([6]; current or subsequent): roentrographic improvement of infiltrates
- dose remaining in the nebulizer after inhalation [7]: approximately one third
- severe adverse reactions [8]: No patient developed any severe adverse reactions
- only frequent adverse effect observed clinically [9]: transient airway irritation
- attack rate at 6.38 months ([10]; 300 mg twice or 600 mg once per month, p<0.01 vs previous study): 3%
- deaths associated with PCP ([10]; 3 deaths): 2%
- deaths due to other causes ([10]; 9 deaths): 6%
- evaluable patients who died ([10]; 12 of 146): 8%
- minor toxicity (rash), patients ([11]; inhaled): One
- major toxicity ([11]; inhaled, patients also received AZT): 20%
- minor toxicity (elevated serum creatinine, depressed leukocyte count), patients ([11]; intravenous): four
- required a change of therapy due to toxicity ([11]; intravenous): 11%
- major toxicity ([11]; intravenous, hepatotoxicity): 22%
- response of all patients infected with P. carinii [12]: responded to standard therapy
- PaO2 ([13]; post therapy, TMP-DPS only 8 patients tested): 87.2 torr
- DLCO ([13]; post therapy): 62
- Vital Capacity ([13]; post therapy): 80
- DLCO ([13]; pre therapy): 59.0
- PaO2 ([13]; pre therapy): 69.3 torr
- Vital Capacity ([13]; pre therapy): 70
- major pentamidine-related toxicity [14]: No major pentamidine-related toxicity
- number of observed cases [15]: 3 cases
- BAL sediment concentration, aerosol vs intravenous group ([16]; 18-24 h): 10-100 fold
- mean BAL supernatant (aerosol) vs sediment (intravenous) concentration, factor ([16]; 18-24 h): more than 2
- systemic absorption ([16]; after aerosol administration): Little or no systemic absorption
- prophylaxis discontinued due to bronchospasm, patients [17]: one
- less common adverse effects ([18]; human, in vivo): cardiac arrhythmias and pancreatitis
- local reactions at site of intramuscular injection ([18]; intramuscular): Pain, swelling and sterile abscesses
- generalized or local reactions, intravenous ([18]; intravenous): thrombophlebitis and generalized or localized urticarial eruptions
- hypoglycemia ([18]; parenteral): Hypoglycemia has also been reported
- impaired renal function ([18]; parenteral): about 25%
- other common adverse reactions ([18]; parenteral): elevation of liver enzymes, hematologic disturbances with neutropenia and thrombocytopenia, fever, hypocalcemia, and hallucinations
- hypotension ([18]; single intramuscular dose or rapid intravenous infusion): Severe hypotension
- mass of particles larger than 4 μm ([19]; at mouth-piece): less than 5%
- particle size MMAD ([19]; at mouth-piece (point B), ± GSD 1.88): 1.42±1.88 μm
- mass of particles larger than 4 μm ([19]; distal to nebulizer): greater than 20%
- Cmax ([20]; human, plasma, intravenous, 3 mg/Kg, read-out: mean peak plasma concentration during first infusion): 260 ± 56 ng/mL
- plasma samples with no detectable drug ([20]; inhaled): approximately two-thirds
- lavage fluid concentration, inhalation vs iv-treated patients ([20]; inhaled vs intravenous): approximately 10 fold
- Plasma conc. on Day 1 ([20]; inhaled): 0.0 ng/mL
- Plasma conc. on Day 1 ([20]; inhaled, 1440 min): 3.1 ng/mL and 14.7 ng/mL and 16.9 ng/mL and 7.3 ng/mL and 32.8 ng/mL and 12.3 ng/mL and 2.5 ng/mL and 7.4 ng/mL and 7.8 ng/mL and 35.0 ng/mL and 30.9 ng/mL and 9.2 ng/mL
- maximum plasma concentration during remainder of therapy, single patients ([20]; intravenous, patient 3 day 5 (lowest), patient 19 day 14 (highest)): 164 ng/mL and 1360 ng/mL
